Laboratory results taken from the supplement of paper PMC10307832.

How the values were obtained:
Experiment in all cases: relative viability (nuclei count vs DMSO), 5 days (fraction); higher = more cells survive
BAY61-3606 + Vorinostat = compound: COC1=C(C=C(C=C1)C2=CC3=NC=CN3C(=N2)NC4=C(C=CC=N4)C(=O)N)OC [BAY61-3606] + O=C(CCCCCCC(=O)Nc1ccccc1)NO [Vorinostat] (partner 1 µM)
How it was run: (§1)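 Lung cancer cell lines in 1536-well plates got either a single drug or a fixed anchor-drug dose together with five library-drug doses (not always all listed) in √10 steps, by pin tool, on the day after seeding. Nuclei were counted after 5 days, and relative viability is the treated-to-vehicle ratio of nuclei counts. Values are medians of duplicate plates.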

Doxorubicin + Lapatinib = compound: COc1cccc2c1C(=O)c1c(O)c3c(c(O)c1C2=O)C[C@@](O)(C(=O)CO)C[C@@H]3O[C@H]1C[C@H](N)[C@H](O)[C@H](C)O1 [Doxorubicin] + CS(=O)(=O)CCNCc1ccc(-c2ccc3ncnc(Nc4ccc(OCc5cccc(F)c5)c(Cl)c4)c3c2)o1 [Lapatinib] (partner 2 µM)
How it was run: as §1

BAY61-3606 + Decitabine = compound: COC1=C(C=C(C=C1)C2=CC3=NC=CN3C(=N2)NC4=C(C=CC=N4)C(=O)N)OC [BAY61-3606] + Nc1ncn([C@H]2C[C@H](O)[C@@H](CO)O2)c(=O)n1 [Decitabine] (partner 2 µM)
How it was run: as §1

Doxorubicin + Alpelisib = compound: COc1cccc2c1C(=O)c1c(O)c3c(c(O)c1C2=O)C[C@@](O)(C(=O)CO)C[C@@H]3O[C@H]1C[C@H](N)[C@H](O)[C@H](C)O1 [Doxorubicin] + Cc1nc(NC(=O)N2CCC[C@H]2C(N)=O)sc1-c1ccnc(C(C)(C)C(F)(F)F)c1 [Alpelisib] (partner 2 µM)
How it was run: as §1

Row | Cell Line | relative viability (BAY61-3606 + Vorinostat; first compound 0.02 µM) | relative viability (BAY61-3606 + Vorinostat; first compound 0.06325 µM) | relative viability (BAY61-3606 + Vorinostat; first compound 0.2 µM) | relative viability (BAY61-3606 + Vorinostat; first compound 0.6325 µM) | relative viability (BAY61-3606 + Vorinostat; first compound 2 µM) | relative viability (Doxorubicin + Lapatinib; first compound 0.001 µM) | relative viability (Doxorubicin + Lapatinib; first compound 0.003162 µM) | relative viability (Doxorubicin + Lapatinib; first compound 0.01 µM) | relative viability (Doxorubicin + Lapatinib; first compound 0.03162 µM) | relative viability (Doxorubicin + Lapatinib; first compound 0.1 µM) | relative viability (BAY61-3606 + Decitabine; first compound 0.02 µM) | relative viability (BAY61-3606 + Decitabine; first compound 0.06325 µM) | relative viability (BAY61-3606 + Decitabine; first compound 0.2 µM) | relative viability (BAY61-3606 + Decitabine; first compound 0.6325 µM) | relative viability (BAY61-3606 + Decitabine; first compound 2 µM) | relative viability (Doxorubicin + Alpelisib; first compound 0.001 µM) | relative viability (Doxorubicin + Alpelisib; first compound 0.003162 µM) | relative viability (Doxorubicin + Alpelisib; first compound 0.01 µM) | relative viability (Doxorubicin + Alpelisib; first compound 0.03162 µM) | relative viability (Doxorubicin + Alpelisib; first compound 0.1 µM)
1 | 201T | 1.02 | 0.962 | 1.05 | 1.09 | 1.06 | 0.942 | 0.968 | 1.04 | 1.01 | 1.03 | 0.87 | 0.923 | 0.864 | 0.896 | 0.834 | 1.02 | 0.969 | 0.985 | 0.969 | 1.02
2 | A549 |  |  |  |  |  | 0.922 | 0.954 | 0.415 | 0.0939 | 0.0714 | 0.222 | 0.261 | 0.224 | 0.237 | 0.198 | 0.799 | 0.676 | 0.48 | 0.132 | 0.0649
3 | A-427 | 0.991 | 0.869 | 0.876 | 0.875 | 0.888 | 1.1 | 0.985 | 1.06 | 1.04 | 1.02 | 0.579 | 0.561 | 0.565 | 0.611 | 0.622 | 1.11 | 1.09 | 1.09 | 1.09 | 1.15
4 | ABC-1 | 1.41 | 1.08 | 1.3 | 1.3 | 1.28 | 1.14 | 1.54 | 0.975 | 1.07 | 1.1 | 1.04 | 1.08 | 0.957 | 1.22 | 0.97 | 1.04 | 0.922 | 1.02 | 0.504 | 0.361
5 | BEN | 0.545 | 0.577 | 0.573 | 0.546 | 0.588 | 1.01 | 0.608 | 0.697 | 0.474 | 0.644 | 0.798 | 0.688 | 0.77 | 0.769 | 0.755 | 1.09 | 1.04 | 0.913 | 0.656 | 0.886
6 | CAL-12T | 0.827 | 0.859 | 0.725 | 0.81 | 0.576 | 0.597 | 0.656 | 0.517 | 0.67 | 0.404 |  |  |  |  |  | 1.23 | 1.41 | 0.587 | 0.26 | 0.142
7 | COR-L23 | 0.564 | 0.5 | 0.511 | 0.491 | 0.323 | 0.955 | 1.19 | 0.921 | 0.241 | 0.14 | 0.398 | 0.441 | 0.455 | 0.485 | 0.363 | 0.826 | 0.806 | 0.866 | 0.428 | 0.128
8 | COR-L 105 | 0.938 | 0.947 | 0.734 | 0.791 | 0.746 | 0.372 | 0.358 | 0.321 | 0.287 | 0.283 | 0.764 | 0.672 | 0.543 | 0.63 | 0.475 | 0.967 | 1.13 | 0.928 | 0.551 | 0.312
9 | Calu-6 |  |  |  |  |  | 0.959 | 1.05 | 0.678 | 0.261 | 0.221 |  |  |  |  |  | 1.09 | 1.01 | 0.866 | 0.529 | 0.295
10 | ChaGo-K-1 | 0.72 | 0.767 | 0.715 | 0.714 | 0.793 |  |  |  |  |  | 0.53 | 0.543 | 0.479 | 0.51 | 0.531 |  |  |  |  | 
11 | EBC-1 |  |  |  |  |  | 0.236 | 0.21 | 0.22 | 0.195 | 0.181 |  |  |  |  |  | 0.835 | 0.921 | 0.823 | 0.61 | 0.405
12 | EKVX | 0.84 | 0.685 | 0.658 | 0.783 | 0.775 | 0.233 | 0.234 | 0.228 | 0.188 | 0.182 | 0.362 | 0.344 | 0.318 | 0.349 | 0.328 | 0.968 | 0.971 | 0.797 | 0.803 | 0.861
13 | EMC-BAC-2 | 0.499 | 0.385 | 0.6 | 0.42 | 0.425 | 0.943 | 0.956 | 0.801 | 0.415 | 0.269 | 1.07 | 1.06 | 1.04 | 1.19 | 0.986 | 0.799 | 0.88 | 0.679 | 0.734 | 0.717
14 | EPLC-272H | 0.402 | 0.401 | 0.579 | 0.339 | 0.37 | 0.918 | 0.906 | 0.919 | 0.944 | 0.989 | 0.409 | 0.403 | 0.369 | 0.396 | 0.33 | 0.898 | 1.04 | 0.913 | 0.902 | 1.02
15 | H3255 | 0.817 | 0.8 | 0.749 | 0.75 | 0.86 | 0.261 | 0.262 | 0.247 | 0.259 | 0.228 | 0.529 | 0.571 | 0.677 | 0.779 | 0.509 | 0.698 | 0.656 | 0.562 | 0.58 | 0.404
